{"source": "patent US20240115658A1", "about": "“Use of an intervertebral disc fibrosis-inducing substance in preparation of medication” (Shanghai Ninth People's Hospital, Shanghai JiaoTong …, priority 2020, published 2024)", "key": {"[1]": {"tested_on": "TGF-β/Smad pathway in annulus fibrosus cells", "experiment": "Immunoprotein western-blotting of annulus fibrosus cells (activation of the TGF-β/Smad pathway)", "type": "cell-based", "method": "Activation of the TGF-β/Smad pathway in annulus fibrosus cells by bleomycin:\nMethod for immunoprotein western-blotting of annulus fibrosus cells:\nAnnulus fibrosus cells (provided by CAS Cell Bank) were cultured in a six-well plate to which high-sugar DMEM medium+10% fetal bovine serum was added, the plate was placed in a 5% CO2 incubator at 37° C., and 5, 10 μg/ml of bleomycin and/or the TGFβR1 inhibitor LY364947 was added when the cell confluence was 70%-80% to co-culture for 30 min or 24 h. Total cellular protein was extracted from cultured annulus fibrosus cells (Medical Center of Rush University) by using RIPA lysis buffer (Roche, Basel, Switzerland) containing phosphatase and protease inhibitors. Equal amounts (20-30 μg) of extracted proteins were obtained by using 10% or 12.5% SDSPAGE gel, and proteins were separated by electroblotting with 0.22 μm PVDF membrane (Merck Millipore). The PVDF membrane was blocked with 5% BSA-PBS for 1 h at room temperature and then incubated with primary antibody (diluted at a ratio of 1:1000 in 5% BSA-PBS) overnight (at least 16 h) at 4° C. Anti-SMAD2 antibody (Ser308, D4364; rabbit monoclonal antibody), anti-phosphorylated SMAD2 antibody (Ser465/467, 138D4; rabbit monoclonal antibody), anti-SMAD3 antibody (C67H9; rabbit monoclonal antibody), anti-phosphorylated SMAD3 antibody (Ser423/425, C25A9; rabbit monoclonal antibody), anti-SMAD2/3 antibody (D7G7; rabbit monoclonal antibody), anti-phospho SMAD2/3 antibody (Ser465/467; Ser423/425; rabbit monoclonal antibody), anti-SMAD4 antibody (D3M6U; rabbit monoclonal antibody), and […] antibody (D6A8; rabbit monoclonal antibody) were purchased from Cell Signaling Technology (Danvers, Massachusetts, USA). […] The membrane was extensively rinsed in TBST again and protein immunobands were detected by using the LI-COR Odyssey Fluorescence Imaging System (LICOR Biosciences, Lincoln, NE, USA). […]"}, "[2]": {"tested_on": "punctured intervertebral disc (spinal degeneration)", "experiment": "Safranin O-fast green staining, Sirius red staining and immunofluorescence of disc paraffin sections", "type": "in vivo, Sprague-Dawley rats", "method": "Fixed disc tissue specimens (sham group, Puncture group, and Bleomycin group) were embedded in paraffin blocks, followed by tissue sectioning (with a thickness of 5 μm). For histological evaluation, paraffin sections were stained with saffron O-solid green and Sirius red according to standard laboratory protocols. For immunofluorescence detection, tissue sections were de-paraffined in graded xylene, rehydrated in graded alcohol solution, and then incubated in antigen retrieval buffer (Roche) at 37° C. for 30 min. After cooling to room temperature, the slides were immersed in PBS (pH 7.4) and washed 3 times for 5 min each. Autofluorescence quencher was added to the sections, and 5 min later, blocking buffer was added to block the sections for 30 min at room temperature. The sections were then incubated with primary antibodies overnight in a wet chamber at 4° C. Primary antibodies were diluted at a ratio of 1:100, and included anti-Col1a1, anti-FSP1, anti-TGFβ, and anti-TGFβR1 (all purchased from Cell Signaling Technology). The next day, sections were washed with PBS, conjugated to secondary antibody (anti-rabbit, 1:500; Cell Signaling Technology) through Alexa-fluor594, and then incubated for 50 min in the dark at room temperature. The sections were washed with PBS and then incubated with DAPI solution (Sigma Aldrich, St. Louis, MO, USA) for 10 minutes in the dark to stain the nucleus. The sections were subjected to a final PBS wash, air-dried, and then sealed with an anti-fluorescence quenching flake. Digital fluorescence images were taken by using a Leica DM4000 B epifluorescence microscope (Leica Microsystems)."}, "[3]": {"tested_on": "punctured intervertebral disc (spinal degeneration)", "experiment": "Atomic force analysis of punctured disc paraffin sections", "type": "in vivo, Sprague-Dawley rats", "settings": "Puncture+Bleomycin; FIG. 7 and 8", "method": "Atomic force analysis was performed by first extracting and dissecting the punctured vertebrae. Paraffin sections were made and then nanoindented (R<10 nm, nominal N/m, tips: Si/Tipless/Top, cantilevered Si/Al/Top; Park Systems) by using a Park NX20 (Park Systems, Korea) equipped with a microsphere colloidal tip. For undulating surfaces with large areas, a scan rate of 13 hz was used. Large scanning rates can reduce drift, but are generally only used to scan small planes. Indentation was performed by using a scanning Asyst air probe, where a z-piezo displacement rate was 10 μm/s, a maximum load was ˜120 nn, a curvature radius was 5 nm, and a force constant was 0.4 N/m."}, "[4]": {"tested_on": "punctured intervertebral disc (spinal degeneration)", "experiment": "Digital X-ray and MRI imaging of punctured rat tail discs after disc local injection of bleomycin", "type": "in vivo, Sprague-Dawley rats", "settings": "5 μl of 10 and 5 μg/ml bleomycin per disc, injected two weeks after puncture, four weeks recovery", "description": "Six 8-week-old male Sprague-Dawley rats (Shanghai Laboratory, Shanghai Animal Research Center, China) were raised at 26-28° C. and 50-65% humidity for 12 h day and night. […] Before surgery, the rats were anesthetized by intraperitoneal injection of sodium pentobarbital (5 mg/100 g of body weight). The tails of rats were disinfected with iodinated polyvinyl pyrrolidone, and then a longitudinal skin incision was made to the tail near the ventral part to expose 6-10 parts of the intervertebral disc of the tail bone. The Co6/7 disc was used as a sham control, and Co7/8, Co8/9, and Co9/10 were used as experimental groups. A sterile 20-gauge needle was used to perpendicularly puncture the intervertebral disc through the skin, so as to ensure the needle passed through the annulus fibrosus and stuck into the nucleus pulposus located at the center of the intervertebral disc. The incision was then sutured and the rats were allowed to recover for two weeks. The rats (n=6) were re-subjected to surgery to expose Co8/9 and Co9/10 discs, and 5 μl of 10 and 5 μg/ml bleomycin were injected into each disc. The surgical incision was then sutured and the rats were allowed to recover for four weeks. At the end of the experiment, all rats were executed, the tails were collected, the soft tissues were cleared, and the spines were fixed with 4% PFA. Co6/7 was the control group (sham group), Co7/8 was the Puncture group, and Co8/9 and Co9/10 were the puncture+bleomycin administration groups (Bleomycin group).\nDigital X-ray imaging of the punctured disc samples (Puncture and Bleomycin groups) prepared in Embodiment 2 was performed in the anterior-posterior axis with a detector that provides up to 5× geometric magnification (Faxitron VersaVision; Faxitron Bioptics LLC, Tucson, AZ. USA). MRI imaging of the same punctured disc samples was performed on a Siemens MagnetomPrisma E11 (Siemens Healthineers, Erlangen, Germany) with the following parameters: TR 3000 ms, TE 80 ms, thickness 1.1 mm, interval 0.22 mm, field of view 160×65 mm, voxel size 0.25×0.1 mm."}, "[5]": {"settings": "10 and 5 μg/ml of bleomycin, compared with the puncture group and the control group, FIG. 4"}, "[6]": {"settings": "Puncture+Bleomycin vs Puncture group, FIG. 3"}}, "data": [{"substance": "bleomycin", "values": [{"measurement": "p-smad2 and p-smad3 in annulus fibrosus cells", "setting": "[1]; 5, 10 μg/ml bleomycin, co-culture 30 min or 24 h, western blot, FIG. 1A and 1B", "value": "activated"}, {"measurement": "expression of end-protein products Col1a1 and FSP1", "setting": "[1]; 5, 10 μg/ml bleomycin, co-culture 30 min or 24 h, western blot, FIG. 1C", "value": "increased"}, {"measurement": "fibrogenic-associated proteins TGFβ, FSP1, and Col1a1 (immunoprotein western-blot)", "setting": "[1]; legend of FIG. 1C", "value": "highly expressed"}, {"measurement": "staining percentage of annulus fibrous (green)", "setting": "[2]; [5]", "value": "significantly increased"}, {"measurement": "staining percentage of type I collagen (yellow)", "setting": "[2]; [5]", "value": "significantly increased"}, {"measurement": "staining percentage of type III collagen (green)", "setting": "[2]; [5]", "value": "significantly increased"}, {"measurement": "type I and type III collagens secreted (immunofluorescence)", "setting": "[2]; Puncture+, Bleomycin 10 or 5, FIGS. 5 and 6", "value": "a large amount of type I and type III collagens was secreted"}, {"measurement": "annulus fibrosus repair (staining)", "setting": "[2]; [6]", "value": "completely repaired and migrated inward"}, {"measurement": "intervertebral space height (Safranin O-fast green and Sirius red staining)", "setting": "[2]; [6]", "value": "significantly higher"}, {"measurement": "type I collagen secreted to fill the intervertebral space (staining)", "setting": "[2]; [6]", "value": "large amounts of type I collagen were secreted"}, {"measurement": "fibrosis (atomic force analysis)", "setting": "[3]", "value": "faster fibrosis"}, {"measurement": "intervertebral space height (atomic force analysis)", "setting": "[3]", "value": "preservation of the intervertebral space height"}, {"measurement": "resistance of the disc to deformation (atomic force analysis)", "setting": "[3]", "value": "increase in the resistance of the disc to deformation"}, {"measurement": "signal of the intervertebral disc (MRI)", "setting": "[4]", "value": "difficult to be preserved"}, {"measurement": "stability of the disc (X-ray and MRI)", "setting": "[4]", "value": "not significantly affected"}, {"measurement": "intervertebral space height (X-ray and MRI)", "setting": "[4]; vs Puncture group", "value": "effectively maintained"}]}]}
